Measurements reported in ChEMBL document CHEMBL1130211, “Synthesis and anti-hepatitis B virus activity of 9-(2-deoxy-2-fluoro-beta-L-arabinofuranosyl) purine nucleosides” (J Med Chem, 1997).
pEC50, pIC50: −log10 of the molar value.

How the values were obtained:
Format in all cases: functional, cell-based
Conditions in all cases: Homo sapiens
HepG2 [1] = experiment: compound was tested in vitro for anti HBV activity in HepG2 2.2.15 cells
HepG2 [2] = experiment: The cytotoxicity against HepG2 2.2.15 cells expressed as IC50
HepG2 [3] = experiment: The cytotoxicity against 2.2.15 cells expressed as IC50
CCRF-CEM = experiment: The cytotoxicity against CEM cells

| Compound | pEC50 (HepG2 [1]) | pIC50 (HepG2 [2]) | pIC50 (HepG2 [3]) | pIC50 (CCRF-CEM) |
| --- | --- | --- | --- | --- |
| OC[C@@H]1O[C@H](n2cnc3cncnc32)[C@H](F)[C@H]1O | < 5.00 | < 3.70 | – | – |
| OC[C@@H]1O[C@H](n2cnc3c(S)ncnc32)[C@H](F)[C@H]1O | < 5.00 | – | < 3.70 | – |
| CN(C)c1ncnc2c1ncn2[C@H]1O[C@@H](CO)[C@H](O)[C@H]1F | < 5.00 | < 3.70 | – | – |
| CNc1ncnc2c1ncn2[C@H]1O[C@@H](CO)[C@H](O)[C@H]1F | < 5.00 | < 3.70 | – | – |
| Nc1nc(Cl)nc2c1ncn2[C@@H]1O[C@H](CO)[C@@H](O)[C@H]1F | < 5.00 | – | < 3.70 | – |
| OC[C@H]1O[C@@H](n2cnc3c(O)ncnc32)[C@H](F)[C@@H]1O | 5.10 | – | < 3.70 | < 4.00 |
| Nc1nc(N)c2ncn([C@@H]3O[C@H](CO)[C@@H](O)[C@H]3F)c2n1 | < 5.00 | – | < 3.74 | – |
| OC[C@H]1O[C@@H](n2cnc3c(NC4CC4)ncnc32)[C@H](F)[C@@H]1O | < 5.00 | < 3.70 | – | – |
| Nc1ncnc2c1ncn2[C@@H]1O[C@H](CO)[C@@H](O)[C@H]1F [2'-BETA-FLUORO-2',3'-DEOXYADENOSINE] | 5.82 | < 3.70 | – | 4.05 |
| Nc1nc(O)c2ncn([C@@H]3O[C@H](CO)[C@@H](O)[C@@H]3F)c2n1 [F-ARAG] | < 5.00 | – | < 3.70 | < 4.00 |
